What all share (format): biochemical
For one test, the target named is T1, CAC C155A mutant (Rattus norvegicus, UniProt P97521, C155A).
T1 construct: made in house; host or cells: E. coli C0214
T1 sequence (P97521 1-301 C155A): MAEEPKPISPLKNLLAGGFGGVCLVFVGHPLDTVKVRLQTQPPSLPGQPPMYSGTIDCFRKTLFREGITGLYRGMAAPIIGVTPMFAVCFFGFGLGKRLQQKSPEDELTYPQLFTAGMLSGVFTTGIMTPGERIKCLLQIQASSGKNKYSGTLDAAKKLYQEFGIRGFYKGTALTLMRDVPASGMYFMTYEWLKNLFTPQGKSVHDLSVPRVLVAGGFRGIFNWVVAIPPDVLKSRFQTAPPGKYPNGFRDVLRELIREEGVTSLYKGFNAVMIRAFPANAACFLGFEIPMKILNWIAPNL
Kind of test: Transport assay in proteoliposomes, CAC mutant C155A. The following applies: read-out: IC50 for itaconate inhibition. As to the method:
(§1) As previously described, the pMW7-WTratCAC recombinant plasmid was used for over-expressing the rat CAC [22]. The overlap extension method was used to introduce the mutations; in the main time, NdeI and HindIII restriction sites were also added using appropriate primers. The PCR products were purified by the QIAEX II Gel Extraction Kit (QIAGEN) and digested with NdeI and HindIII and then ligated into the pMW7. All mutations were verified by DNA sequencing. The resulting plasmid constructs were transformed into E. coli C0214. Overexpression, inclusion body fraction preparation, and purification of the CAC proteins were performed as previously described. […]
(§2) To test the transport activity of the CAC, 550 μL of proteoliposomes was passed through a Sephadex G-75 column to remove the external substrate. […] Transport rates were measured in 10 min, i.e., within the initial linear range of the time course, at 25 °C. After terminating the transport reaction, the external substrate was removed by chromatography on the Sephadex G-75 column, and the intraliposomal radioactivity was measured. […]
Figure 3 Identification of residue responsible for itaconate inhibition. […] Transport activity of the WT (○), C136A (●), C155A (Δ), C23V/C58V/C89S/C155V/C283S (▲), and C23V/C58V/C89S/C136V/C155V/C283S (□) was measured by adding 0.1 mM [^3H]carnitine after treatment by itaconate at the indicated concentrations. […]

For test [1], the target named is T2, native mitochondrial carnitine/acylcarnitine carrier (CAC) (Rattus norvegicus, UniProt P97521).
T2 construct: from tissue; host or cells: rat liver mitochondria
T2 sequence (P97521 1-301): T1 sequence (P97521 1-301 C155A) with A155C
Nature of the test: [3H]carnitine/carnitine antiport in proteoliposomes reconstituted with native CAC from rat liver mitochondria. The following applies: 10 min incubation, 0.1 mM [3H]carnitine, pH 7.0, read-out: IC50 for itaconate inhibition of [3H]carnitine/carnitine antiport.
Description: As previously described, recombinant CAC (WT and mutants) and ORC1 proteins were used for proteoliposome formation. For experiments with native CAC, ORC1, or ANT proteins, rat liver mitochondria, or HeLa cell mitochondria, the latter for the CAC alone, were first purified using the standard procedure of cell disruption and differential centrifugation. Then proteins were extracted using 3% Triton X-100 and reconstituted as described for the recombinant proteins. The concentration of intraliposomal carnitine and ornithine was 15 mM and 30 mM, respectively, in all samples.
as §2, with “substrate. Six hundred μL of the turbid eluate was collected, divided into samples of 100 μL each, and used for transport measurement by the inhibitor-stop method. Transport was started by adding 0.1 mM [^3H]carnitine ([^3H]ornitine or [^3H]ATP) to proteoliposome samples and stopped with 1.5 mM NEM (N-ethylmaleimide) at the indicated time interval.” for “substrate.”

For a further test, the target named is T3, CAC K135A mutant (Rattus norvegicus, UniProt P97521, K135A).
T3 construct: made in house; host or cells: E. coli C0214
T3 sequence (P97521 1-301 K135A): T1 sequence (P97521 1-301 C155A) with K135A, A155C
Kind of test: Transport assay in proteoliposomes, CAC mutant K135A. To be noted: read-out: IC50 for itaconate inhibition. Here is the method: as §1, §2
Figure 9 Dose–response analysis of inhibition by itaconate of WT protein (○) and the K135A (●) mutant was performed by measuring the transport activity with or without itaconate treatment. […] The data are expressed as a percent of the own controls and are means ± SD from three independent experiments.

Changes are numbered by the printed parent chain.

`C=C(CC(=O)O)C(=O)O` [itaconate]: the results for the IC50 (on CAC C155A mutant; in test [1]; on CAC K135A mutant) were 3.8 ± 0.64 mM, 11 ± 4.6 mM and 16 ± 2.6 mM, respectively.

These data come from PMC10296061, “Inhibition of the Mitochondrial Carnitine/Acylcarnitine Carrier by Itaconate through Irreversible Binding to Cysteine 136: Possible Pathophysiological Implications” (Biomolecules, 2023).
